Data as given in patent US8043623B2, “Immunogenic peptides for the treatment of prostate and breast cancer” (The Government of the United States of America as …, priority 2003, dated 2011).
Entries after “also recorded” stand apart in the source; their conditions may differ.

Assays:
[1] = molecular target: T1, HLA-A2.1 molecules (Homo sapiens, UniProt P04439, D140Y/D185E/D98H/E176V/E277Q/G131W/G231S/I119V/I121R/I166T/I218V/L300P/L318F/N151K/N90K/P208A/P217A/Q86G/Q94H/R138H/R169H/T345S); assay: T2-binding assay; details: T2 cells; for binding capacity to HLA-A2.1 molecules: overnight with β2-microglobulin, anti-HLA-A2 staining
T1 construct: The T2 cell line is deficient in TAP1 and TAP2 transporter proteins and expresses low levels of HLA-A2.1; endogenous in cells; host or cells: T2 cell line (TAP1/TAP2-deficient)
Method: T2-binding assay. Peptide binding capacity to HLA-A2.1 molecules was measured by using the T2 cell line according to a protocol previously described (Nijman et al., Eu. J. Immunol. 23:1215, 1993). T2 cells (3×10^5/well) were incubated overnight in 96-well plates with culture medium (1:1 mixture of RPMI 1640/EHAA containing 2.5% FBS, 100 U/ml penicillin, 100 μg/ml streptomycin) with 10 μg/ml β2-microglobulin (Sigma) and different concentrations of peptide. Cells were washed twice with cold PBS containing 2% FBS and incubated for 30 minutes at 4° C. with anti-HLA-A2.1 BB7.2 mAb ( 1/80 dilution from hybridoma supernatant). After washing, cells were stained with FITC-labeled goat anti-mouse Ig (PharMingen, San Diego, Calif.) and the level of HLA-A2.1 expression was measured by flow cytometry. HLA-A2.1 expression was quantified as fluorescence index (FI) according to the formula: FI=(mean fluorescence intensity with peptide-mean fluorescence intensity without peptide)/mean fluorescence intensity without peptide.

[2] = system: MCF-7; assay: CTL assay against human tumor cells (MCF-7); type: cell-based
Method: (§1) In vitro human CD8^+ T cell priming with DC. Elutriated monocytes and lymphocytes were obtained from HLA-A2.1-positive patients or normal donors. To prepare DC, monocytes were cultured at 10^6 cells/ml in complete medium containing human IL-4 (1000 units/ml) and human GM-CSF (1000 units/ml). On day 2 and 4, half of the media was exchanged. To mature the DC, CD40 ligand trimer (Immunex, Seattle, Wash.) was added at 1 μg/ml on day 4 or 5, and then further cultured for 2 or 3 days. Cells were harvested on day 7, and then pulsed with 10 μM of peptides for 2 hours before γ-irradiation. 1×10^5 peptide-pulsed DC and 2×10^6 autologous CD8^+ T cells were mixed and cultured in 24-well plates. 10 units/ml IL-2 was added on day 2 during restimulation. Cells were restimulated every 7-9 days approximately 4-7 cycles.
(§2) CTL assay. For murine CTL, CD8^+ T cells from the immunized mice were restimulated with peptide-loaded splenocytes for one week as previously described (Oh et al., J Immunol 170:2523, 2003), and then applied to 5 hour ^51Cr release assays. Target cells were labeled with ^51Cr first and washed twice. Cells were then pulsed with peptides for 2 hours and used as target cells without further washing. For human CTL, target cells were also labeled with ^51Cr first, and then loaded with peptides. In the CTL assay against human tumor cells, target cells were incubated in the complete medium containing 1000 units/ml IFN-γ for 72 hours. The mean of triplicate samples was calculated, and the percentage of specific lysis was determined using the following formula: Percentage of specific lysis=100×[(experimental ^51Cr release−control ^51Cr release)/(maximum ^51Cr release−control ^51Cr release)]. The maximum release refers to counts from targets in 2.5% Triton X-100.

[3] = system: A2K^b transgenic mice; assay: Immunization of A2K^b transgenic mice; murine CTL assay and intracellular IFN-γ staining; type: in vivo; details: for cross-reactivity of murine CD8^+ CTL induced with the peptide: recognition of wild-type TARP-29-37 and other peptides on pulsed targets: Jurkat-HLA-A2 targets pulsed with peptides; for cross-reactivity of murine CD8^+ CTL induced with the peptide: recognition of wild-type TARP-29-37 and other peptides on pulsed targets / killing of target cells pulsed with TARP-27-35 by murine CTL induced with the peptide: ^51Cr release; for frequency of CD8^+ T cells specific for the individual peptide, compared to wild-type TARP-29-37: mice immunized s.c. with peptide and cytokine in adjuvant, IFN-γ staining; for number of IFN-γ-producing CD8^+ T cells, of total CD8^+ T cells: mice immunized with peptide-pulsed DC, intracellular staining
Method: Immunizations. A2K^b transgenic mice were immunized with syngeneic peptide-loaded dendritic cells (DC), plasmid DNA expressing TARP, or the mixture of peptide and cytokine in incomplete Freund's adjuvant (IFA). For DC immunization, DC were pulsed with 10 μM peptide in serum-free RPMI for 2 hours at 37° C., and then mice were immunized subcutaneously (s.c.) with 1-3×10^5 DC without washing. DC were prepared from bone marrow as previously described (Celluzzi et al. J. Exp. Med. 183:283, 1996). Alternatively, mice were immunized intramuscularly with 100 μg plasmid DNA, pcDNA5/FRT/TARP, generated by inserting the TARP DNA into the pcDNA5/RFT (Invitrogen, Carlsbad, Calif.) vector. Mice were also immunized subcutaneously (s.c.) in the base of the tail with 100 μl of an emulsion containing 1:1 IFA and PBS with antigens and cytokines (50 nmol CTL epitope, 50 nmol HBV core 128-140 helper epitope, 3 μg of IL-12, and 5 μg of granulocyte macrophage colony stimulating factor (GM-CSF). IFA and cytokines were purchased from Sigma and Peptotech (Rocky Hill, N.J.), respectively.
as §2
Antibody and flow cytometry. FITC-labeled anti-mouse CD8 (53-6.7), CD11c, CD80 (B7-1), CD54 (ICAM-1), anti-human CD8 (RPA-T8), CD14 (M5E2), CD80 (B7-1), and CD86 (B7-2) were used for staining of cell surface molecules. For intracellular IFN-γ staining, cells were stained by following the manufacturer's protocol. All Abs and reagents were purchased from PharMingen. For flow cytometric analysis of cell surface, 5×10^5 cells were washed and resuspended in PBS containing 0.2% BSA and 0.1% sodium azide. Cells were incubated on ice with the appropriate antibody for 30 minutes and then washed. Samples were analyzed on a FACScan (BD Biosciences, Mountain View, Calif.). Background staining was assessed by use of an isotype control antibody. For tetramer staining, cells were incubated with FITC-labeled anti-CD8 for 10 minutes, and then stained with tetramers.

[4] = system: CD8^+ T cells; assay: In vitro human CD8^+ T cell priming with peptide-pulsed DC; type: cell-based; details: CD8^+ T cells of an HLA-A2.1-positive prostate cancer patient, peptide-pulsed autologous DC
Method: as §1

[5] = system: peptide-pulsed C1R-A2.1 target cells; assay: Human CTL 5-hour ^51Cr release assay on peptide-pulsed targets; type: cell-based; details: for cytolytic activity of human CD8^+ CTL raised with the peptide against targets pulsed with the corresponding peptide / recognition of TARP-27-35 by human CTL raised with the peptide: C1R-A2.1 targets; for cross-reactivity of human CD8^+ CTL raised with the peptide to other peptides (wild-type TARP-29-37, enhanced epitopes): C1R-A2.1 targets pulsed with 10 μM peptides; for peptide concentration at which CTLs specific for TARP-29-37-9V recognize targets pulsed with the named peptide (avidity): label = peptide pulsed on targets, effector = TARP-29-37-9V-specific human CTL
Method: as §1, §2

[6] = 50:1 E/T ratio, targets pre-incubated with IFN-γ 72 hours

Substance	binding capacity to HLA-A2.1 molecules [1]	lytic activity against MCF-7 of CD8^+ CTL specific for the peptide [2, 6]	cross-reactivity of murine CD8^+ CTL induced with the peptide: recognition of wild-type TARP-29-37 and other peptides on pulsed targets [3]	frequency of CD8^+ T cells specific for the individual peptide, compared to wild-type TARP-29-37 [3]	recognition of TARP-27-35 by human CTL raised with the peptide [5]	cross-reactivity of human CD8^+ CTL raised with the peptide to other peptides (wild-type TARP-29-37, enhanced epitopes) [5]	peptide concentration at which CTLs specific for TARP-29-37-9V recognize targets pulsed with the named peptide (avidity) [5]	binding affinity to HLA-A2.1 molecules compared with another peptide [1]	other results
TARP-2-9: amino acids 2-9 of SEQ ID NO: 1 (QMFPPSPL; listed as Homo sapiens)	Neither TARP-2-9 nor TARP-22-30 showed any measurable binding affinity	–	–	–	–	–	–	–	–
FLANFSLML (TARP peptide with a R3A substitution.) [TARP-29-37-3A]	–	less lytic activity to MCF-7; also recorded: much lower lytic activity against tumor cells than CTLs to TARP-29-37-9V	recognized TARP-29-37-3A/MHC complex better than other peptide/MHC Class I complexes; also recorded: weak cross-reactivity to wild-type peptide in the mice	almost two-fold higher frequencies of CD8^+ T cells; also recorded: high CD8^+ T cell responses in transgenic mice	to some extent	poorly recognized the wild-type and TARP-29-37-9V; also recorded: did not recognize other peptides as much as they did the immunogens; also recorded: did not recognize wild-type peptide very well in the human	only slightly lower avidity	greatest increase in the binding affinity; also recorded: not less than that of the positive control peptide, FMP; also recorded: highest binding affinity	lytic activity against MCF-7 of CD8^+ CTL specific for the peptide ([2]; 100:1 E/T ratio): comparable range of lytic activity against MCF-7 cells; also recorded: significant range of specific lysis only at a 100:1 E:T ratio; killing of target cells pulsed with TARP-27-35 by murine CTL induced with the peptide [3]: did not kill target cells pulsed with TARP-27-35; cycles of in vitro restimulation needed to detect peptide-specific CD8^+ T cells [4]: after only four cycles; cytolytic activity of human CD8^+ CTL raised with the peptide against targets pulsed with the corresponding peptide [5]: higher levels of cytolytic activity against the corresponding peptides
TARP-22-30: amino acids 22-30 of SEQ ID NO: 1 (RLEHTFVFL; listed as Homo sapiens)	Neither TARP-2-9 nor TARP-22-30 showed any measurable binding affinity	–	–	–	–	–	–	–	–
FLRNFSLMV (TARP peptide with a L9V substitution.) [TARP-29-37-9V]	–	higher lytic activity against MCF-7; also recorded: could kill human tumor cells	slightly more potent in killing targets pulsed with wild-type TARP-29-37; also recorded: most immunogenic of the peptides in inducing CTLs specific for the wild-type sequence	almost two-fold higher frequencies of CD8^+ T cells; also recorded: higher level of CD8^+ T cell responses than TARP-29-37	to some extent	could recognize both wild-type and TARP-29-37-3A comparably; also recorded: killed the wild-type peptide (TARP-29-37, SEQ ID NO: 5)-pulsed target cells efficiently; also recorded: to a similar degree to the immunogen	0.001 µM	lower binding affinity to HLA-A2.1 than TARP-29-37-3A; also recorded: did enhance the binding affinity of wild-type peptide	killing of target cells pulsed with TARP-27-35 by murine CTL induced with the peptide [3]: could also kill target cells pulsed with TARP-27-35; cycles of in vitro restimulation needed to detect peptide-specific CD8^+ T cells [4]: at least five cycles
substitution with Ala at position 3 in TARP-27-35: TARP-27-35 with Phe at position 3 replaced by Ala (FVALRNFSL; listed as Homo sapiens)	no binding of the peptide to HLA-A2.1 molecules	–	–	–	–	–	–	–	–
FVFLRNFSL (listed as Homo sapiens) [TARP-27-35]	showed measurable binding capacity	higher lytic activity against MCF-7; also recorded: could kill human tumor cells as well	did not recognize TARP-29-37	higher frequency of CD8^+ CTL specific for the peptide	–	poorly recognized other peptide/MHC complexes tested; also recorded: did not recognize other peptides as much as they did the immunogens	–	almost a ten-fold higher binding affinity	number of IFN-γ-producing CD8^+ T cells, of total CD8^+ T cells [3]: 2.1%; cytolytic activity of human CD8^+ CTL raised with the peptide against targets pulsed with the corresponding peptide [5]: higher levels of cytolytic activity against the corresponding peptides; also recorded: lysed TARP-27-35-pulsed target cells
TARP-27-35-2L: TARP-27-35 substituted at position 2 with Leu (FLFLRNFSL; listed as Homo sapiens)	–	–	–	–	–	–	–	did not alter the binding affinity of the wild-type peptide	–
TARP-27-35-9V: TARP-27-35 substituted at position 9 with Val (FVFLRNFSV; listed as Homo sapiens)	–	–	–	–	–	–	–	did not alter the binding affinity of the wild-type peptide	–
FLRNFSLML (listed as Homo sapiens) [TARP-29-37]	showed measurable binding capacity	–	–	–	to some extent	could recognize and lyse target cells pulsed with the wild-type as well as the two enhanced epitopes; also recorded: killed the wild-type peptide (TARP-29-37, SEQ ID NO: 5)-pulsed target cells efficiently; also recorded: could recognize all four peptide/MHC complexes	only slightly lower avidity	–	peptide-specific CD8^+ T cell responses (CTL) ([3]; mice immunized with peptide-pulsed DC or plasmid DNA expressing TARP): lower peptide-specific CD8^+ T cell responses; number of IFN-γ-producing CD8^+ T cells, of total CD8^+ T cells [3]: significant number of CD8^+ T cells producing IFN-γ
